Measurements taken from article PMC3269340, “Pharmacokinetics of memantine in rats and mice” (PLoS Currents, 2012).
Read-outs that look alike come from different tables or passages of the source.

Test: Pharmacokinetics in rats after single iv, po or sc dose (plasma and brain)
Type: in vivo, Sprague-Dawley rats
Details: for half-life / AUC(0-inf) / Cmax: plasma
Description: Sprague Dawley (SD) rats (138 adult males), and C57Bl/6 mice (140 adult males), were obtained (Hilltop Laboratories, Scottsdale, PA); 123 per species were used in the study and the remainder provided blank matrix. Animals were individually identified by tail markings and were acclimated to the study environment for 16-21 days prior to dose administration. Animals were individually housed in suspended wire caging, and were kept on a 12h/12h light/dark cycle except when interrupted for study procedures. Average room temperature was regulated in the range 18 to 29°C, average relative humidity of 30-70%, and an average daily airflow >10 fresh air changes/h. Animals were fed LabDiet^Ò Certified Rodent Diet 5002 Meal food ad libitum, except during fasting prior to dose administration, and had access to water ad libitum.
[…] […] The concentration of memantine for the same dose level administered to mice was 0.2 mg eq./mL, and the dose volume was 5 mL/kg. The concentration of memantine in the 10mg eq./kg po and sc solutions was 5 mg eq./mL and the dose volume was 2 mL/kg for both rats and mice.
Details of the dose administration, body weights, clinical observations, plasma and brain sample collection and preparation are not shown in this report but are available upon request. Blood (for preparation of plasma) and brain samples were collected at 0.08, 0.25, 0.5, 1, 2, 4, 8, and 24h post-dose.
Since all time points were terminal, mean memantine concentrations per time point were used to calculate the composite PK parameters by non-compartmental analysis using WinNonlin program, version 5.2 (Pharsight Corp., Mountain View, California). A model was selected based on the vascular (iv bolus) or extravascular (po or sc) routes of administration. For the iv route, plasma concentration at time zero was back extrapolated from the first two observed post dose plasma concentrations. For the po and sc routes, concentration at time zero was assumed to be zero. Plasma and tissue concentrations below the limit of quantitation were treated as absent samples for the purpose of calculating the mean plasma concentration values or for calculating PK parameters.
The area under the plasma concentration versus time curve (AUC) was calculated using the linear trapezoidal method (linear interpolation). When appropriate, the terminal elimination phase of the PK profile was estimated based on the best fit (r^2) using at least the last three observed concentrations. PK parameters describing the systemic exposure of memantine in plasma and brain were estimated from observed (rather than predicted) plasma/brain concentrations, the dosing regimen, the AUC, and the terminal elimination phase rate constant (kel) for each group. The portion of the AUC from the last measurable concentration to infinity was estimated from the equation Ct/kel, where Ct represents the last measurable concentration. The extrapolated portion of the AUC was used for the determination of AUC0-∞. The percent bioavailability (%F) was calculated by dividing the dose normalized extravascular plasma AUC0-∞ by the dose normalized iv plasma AUC0-∞ times 100. The bioavailability calculations assumed concentrations were in the linear range.
Concentrations of memantine in rat and mouse plasma and brain were determined using an LC-MS/MS assay developed at ABC Laboratories.

[1] = rat brain, po dose increase from 1.22 to 10 mg/kg
[2] = rat plasma, po dose increase from 1.22 to 10 mg/kg

CC12CC3CC(C)(C1)CC(N)(C3)C2 [memantine]
half-life (male, Sprague-Dawley, rat, iv, 1 mg/kg, rat, printed under 1 mg/kg (iv), cross-species summary, read-out: t 1/2 (converted)): 4 h | AUC(0-inf) (male, Sprague-Dawley, rat, iv, 1.22 mg/kg, rat plasma, IV 1.22 mg eq./kg, read-out: AUC(0-∞)): 1.64 µM·h | half-life (male, Sprague-Dawley, rat, iv, 1.22 mg/kg, rat plasma, IV 1.22 mg eq./kg, read-out: Half-life (t½) (converted)): 1.9 h | AUC(0-inf) (male, Sprague-Dawley, rat, po, 1 mg/kg, rat, dose 1 mg/kg, single dose in solution (oral values of Table 1), read-out: AUC inf): 0.6 µM·h | Cmax (male, Sprague-Dawley, rat, po, 1 mg/kg, rat, dose 1 mg/kg, single dose in solution, read-out: C max): 100 nM | AUC(0-inf) (male, Sprague-Dawley, rat, po, 1.22 mg/kg, rat plasma, PO 1.22 mg eq./kg, read-out: AUC(0-∞)): 0.594 µM·h | half-life (male, Sprague-Dawley, rat, po, 1.22 mg/kg, rat plasma, PO 1.22 mg eq./kg, read-out: Half-life (t½) (converted)): 2.23 h | Cmax (male, Sprague-Dawley, rat, po, 1.22 mg/kg, rat plasma, PO 1.22 mg eq./kg, read-out: Observed Cmax): 109 nM | AUC(0-inf) (male, Sprague-Dawley, rat, po, 10 mg/kg, rat plasma, PO 10.0 mg eq./kg, read-out: AUC(0-∞)): 11.4 µM·h | half-life (male, Sprague-Dawley, rat, po, 10 mg/kg, rat plasma, PO 10.0 mg eq./kg, read-out: Half-life (t½) (converted)): 3.92 h | Cmax (male, Sprague-Dawley, rat, po, 10 mg/kg, rat plasma, PO 10.0 mg eq./kg, read-out: Observed Cmax): 3700 nM | AUC(0-inf) (male, Sprague-Dawley, rat, po, 10 mg/kg, rat, dose 10 mg/kg, single dose in solution (oral values of Table 1), read-out: AUC inf): 11.4 µM·h | Cmax (male, Sprague-Dawley, rat, po, 10 mg/kg, rat, dose 10 mg/kg, single dose in solution, read-out: C max): 3700 nM | AUC(0-inf) (male, Sprague-Dawley, rat, sc, 1 mg/kg, rat plasma, SC 1.0 mg eq./kg, read-out: AUC(0-∞)): 1.69 µM·h | half-life (male, Sprague-Dawley, rat, sc, 1 mg/kg, rat plasma, SC 1.0 mg eq./kg, read-out: Half-life (t½) (converted)): 1.81 h | Cmax (male, Sprague-Dawley, rat, sc, 1 mg/kg, rat plasma, SC 1.0 mg eq./kg, read-out: Observed Cmax): 985 nM | AUC(0-inf) (male, Sprague-Dawley, rat, sc, 10 mg/kg, rat plasma, SC 10.0 mg eq./kg, read-out: AUC(0-∞)): 25.8 µM·h | half-life (male, Sprague-Dawley, rat, sc, 10 mg/kg, rat plasma, SC 10.0 mg eq./kg, read-out: Half-life (t½) (converted)): 2.59 h | Cmax (male, Sprague-Dawley, rat, sc, 10 mg/kg, rat plasma, SC 10.0 mg eq./kg, read-out: Observed Cmax): 6190 nM | Tmax (male, Sprague-Dawley, subcutaneous, rat plasma, po and sc, all dose levels, read-out: Tmax after extravascular administration): 0.5 to 1 h | Cmax/Cmin ratios (rat): > 100 | total systemic clearance, times higher than GFR (rat): ~ 13 fold | AUCnorm (rat brain, IV 1.22 mg eq./kg): 39040 (nM hr/kg) /(kg/mg) | Observed CmaxNorm (rat brain, IV 1.22 mg eq./kg): 9003 nM/ (mg/kg) | AUCnorm (rat brain, PO 1.22 mg eq./kg): 17310 (nM hr/kg) /(kg/mg) | Observed CmaxNorm (rat brain, PO 1.22 mg eq./kg): 1775 nM/ (mg/kg) | AUCnorm (rat brain, PO 10.0 mg eq./kg): 25620 (nM hr/kg) /(kg/mg) | Observed CmaxNorm (rat brain, PO 10.0 mg eq./kg): 2543 nM/ (mg/kg) | AUCnorm (rat brain, SC 1.0 mg eq./kg): 52980 (nM hr/kg) /(kg/mg) | Observed CmaxNorm (rat brain, SC 1.0 mg eq./kg): 10620 nM/ (mg/kg) | AUCnorm (rat brain, SC 10.0 mg eq./kg): 44160 (nM hr/kg) /(kg/mg) | Observed CmaxNorm (rat brain, SC 10.0 mg eq./kg): 7544 nM/ (mg/kg) | AUC0-∞ increase, fold more than dose proportional [1]: 1.5 fold | Cmax increase, fold more than dose proportional [1]: ~ 1.5 fold | Cmax and AUC0-∞ increase relative to dose proportional (rat brain, sc dose increase from 1 to 10 mg/kg, slightly less than dose proportional): 0.7-0.8 fold | AUCnorm (rat plasma, IV 1.22 mg eq./kg): 1342 (nM hr/kg) /(kg/mg) | AUCnorm (rat plasma, PO 1.22 mg eq./kg): 486.9 (nM hr/kg) /(kg/mg) | Observed CmaxNorm (rat plasma, PO 1.22 mg eq./kg): 89.07 nM/ (mg/kg) | AUCnorm (rat plasma, PO 10.0 mg eq./kg): 1139 (nM hr/kg) /(kg/mg) | Observed CmaxNorm (rat plasma, PO 10.0 mg eq./kg): 369.6 nM/ (mg/kg) | AUCnorm (rat plasma, SC 1.0 mg eq./kg): 1686 (nM hr/kg) /(kg/mg) | Observed CmaxNorm (rat plasma, SC 1.0 mg eq./kg): 985.0 nM/ (mg/kg) | AUCnorm (rat plasma, SC 10.0 mg eq./kg): 2581 (nM hr/kg) /(kg/mg) | Observed CmaxNorm (rat plasma, SC 10.0 mg eq./kg): 618.9 nM/ (mg/kg) | AUC0-∞ increase, fold more than dose proportional [2]: 2.3 fold | Cmax increase, fold more than dose proportional [2]: ~ 4 fold | AUC0-∞ increase, fold more than dose proportional (rat plasma, sc dose increase from 1 to 10 mg/kg): 1.5 fold | elimination half-life (rat, all dose routes and levels (plasma; b142 also brain)): < 4 h | C max/ C min ratio (rat, dose 10 mg/kg): 123 | delay in Tmax for brain compared to plasma (rat, same dose level and route): 0.25 to 1.5 h | Contribution of active transport to clearance (rodent (rat)): > 100% | brain elimination half-lives after extravascular administrations (summary for rats and mice, rat): 2.28 – 3.8
